Reference: patent US6235516A, “Biocatalysts with amine acylase activity” (Novartis AG, priority 1996, dated 2001)
“And” between values parts separate entries of the source, which are not always exact repeats. Equal entries are not always repeated. Where two headings read alike, the source gives them in different places.

Key:
[1] = test system: Rhodococcus globerulus K1/1 acylase; format: biochemical
Procedure: The standard assay for K1/1-acylase activity used for monitoring the purification and for the enzymological characterization is performed by mixing 20 μl of an enzyme sample with 380 μl of a 5.55 mM solution of (S)-2-acetylamino-1-phenyl-4-pentene in 69 mM potassium phosphate buffer, pH 7, and incubating at 23° C. The dilution of the acylase and the incubation time are chosen so that not more than 1.3 mM of product are formed. The reaction is stopped by addition of 800 μl ice cold methanol. After centrifugation for 4 min at 11500 rpm in a Biofuge 15 (Heraeus Sepatech, Osterode, Germany) the supernatant is subjected to quantitative HPLC analysis (see example 1).
27.1. Activity of the Rhodococcus globerulus K1/1 acylase in the presence of potential enzyme activators and inhibitors: […]

[2] = molecular target: Ac6-acylase (Rhodococcus (subgen. Prescottella) equi, UniProt A0A3S5Y3Z2); experiment: Activity of the Ac6-acylase in the presence of potential enzyme activators and inhibitors; format: biochemical; conditions: for activity at 10000 µM: read-out: Relative activity (%)
Procedure: After an incubation at 30° C. for a time period allowing the liberation of 0 to 3 mM of 1-phenylethylamine 400 μl of ice cooled acetone are added to stop the reaction. The tube is mixed vigorously, put on ice for about 15 min., and then is centrifuged for 4 min at 11500 rpm in a Biofuge 15 (Heraeus Sepatech, Osterode Germany). The supernatant is subjected to quantitative HPLC analysis. If activity assays contain crude extracts of cells grown in the presence of N-acetyl-1-phenylethylamine a control assay without substrate has to be prepared in parallel in order to determine the 1-phenylethylamine content of the crude extract. For HPLC analysis sample volumes of 20 μl are injected onto a RP-8 column (LiChroCART 125-4, LiChrospher 100 RP-8 ([…]), guard column: LiChroCART 4-4, LiChrospher 100 RP-8 ([…]), Merck Co., Darmstadt Germany). The following gradient with a flow rate of 1.25 ml/min. is applied for the separation of the substrate N-acetyl-1-phenylethylamine and the product 1-phenylethylamine:
One unit (U) of acylase activity is defined as the amount of enzyme catalyzing the liberation of 1 μmol of 1-phenylethylamine per minute. The acylase concentration in the samples is calculated according to the following formula: […]
In the presence of various potential enzyme activators and inhibitors activity assays are performed according to the scheme given in example 1 by applying the following conditions and final concentrations:
(S)-N-acetyl-1-phenylethylamine 20 mM
Purified acylase from example 4 c 0.02 U/ml
Incubation time 120 min.

[3] = test system: AcR5b-acylase; experiment: Activity of the AcR5b-acylase in the presence of potential enzyme activators and inhibitors; format: biochemical, Arthrobacter aurescens AcR5b; conditions: for Relative activity (%), EDTA reactivation: preincubated with 1 mM metal cation, then 10 mM EDTA for 30 min
Procedure: 40 μl of the concentrated enzyme solution from example 4d) are mixed with 360 μl of 1 and 10 mM solutions of the potential activators/inhibitors in 100 mM Tris-HCl buffer, pH 8, and incubated at room temperature for 30 min. These preincubated acylase solutions are used as the enzyme source for activity assays in the presence of the activator/inhibitor (see example 8) in the concentration used for the preincubation. The incubation time is 12 min. For the EDTA reactivation the acylase is first preincubated with the metal cation at 1 mM concentration (see above). After adding EDTA to a final concentration of 10 mM in form of a 110 mM solution in 100 mM Tris-HCl, pH 8, the acylase is preincubated a second time for 30 min., before the standard activity assay is performed.

[4] = molecular target: T1, acylase from Rhodococcus equi Ac6 (Rhodococcus (subgen. Prescottella) equi, UniProt A0A3S5Y3Z2); experiment: Enzymatic hydrolysis of racemic amides with partially purified acylase from Rhodococcus equi Ac6; format: biochemical; set-up: e.e. (R)-Amide: unit not given here; conditions: for Selectivity E: enantioselectivity of the hydrolysis; for e.e. (S)-Amine: formed amine, analysed as acetamide; for e.e. (R)-Amide: unconverted amide, chiral HPLC
T1 construct: N-terminus […]
Procedure: (§1) To 10 ml of a 20 mM solution of each of the racemic amides shown below 1 in 0.1 M phosphate buffer pH 7.0, 5 ml (1.3 units) of the enzyme is added and the solutions are shaken at 100 rpm and 30° C. [drawing 10] [drawing 11]
(§2) When the conversion reaches about 50% (checked by HPLC) the solutions are acidified to pH 2 by adding 1 N HCl and extracted three times with dichloromethane to obtain the unconverted amides. The aqueous layers are neutralized with 1 N NaOH solution and extracted again three times with dichloromethane to recover the formed amines. Both organic phases are dried with MgSO4, filtered and the solvent is distilled off. The amides are used directly for optical purity determinations (HPLC), whereas the obtained amines are converted to the acetamides by adding 100 μl triethylamine and 100 μl acetic anhydride to each sample and then analyzed for the optical purity by "chiral" HPLC.
The experiments are carried out in the same manner as described in example 22.

[5] = test system: acylase from Arthrobacter aurescens Ac5R; experiment: Enzymatic hydrolysis of racemic amides with highly purified acylase from Arthrobacter aurescens Ac5R; format: biochemical; conditions: for Selectivity E: enantioselectivity of the hydrolysis; for e.e. (R)-Amine: formed amine, analysed as acetamide by chiral HPLC; for e.e. (S)-Amide: unconverted amide, chiral HPLC
Procedure: as §1, §2

[6] = compound 1 mM, 20 mM (S)-N-acetyl-1-phenylethylamine, Tris-HCl pH 8, 120 min, none = 100
[7] = compound 10 mM, values in brackets: precipitates formed during the assay, none = 100
[8] = compound 1 mM, 30 min preincubation, Tris-HCl pH 8, none = 100
[9] = compound 10 mM, 30 min preincubation, values printed in brackets: precipitates formed, none = 100

Ac6-acylase, sequence (A0A3S5Y3Z2 entry or part of it): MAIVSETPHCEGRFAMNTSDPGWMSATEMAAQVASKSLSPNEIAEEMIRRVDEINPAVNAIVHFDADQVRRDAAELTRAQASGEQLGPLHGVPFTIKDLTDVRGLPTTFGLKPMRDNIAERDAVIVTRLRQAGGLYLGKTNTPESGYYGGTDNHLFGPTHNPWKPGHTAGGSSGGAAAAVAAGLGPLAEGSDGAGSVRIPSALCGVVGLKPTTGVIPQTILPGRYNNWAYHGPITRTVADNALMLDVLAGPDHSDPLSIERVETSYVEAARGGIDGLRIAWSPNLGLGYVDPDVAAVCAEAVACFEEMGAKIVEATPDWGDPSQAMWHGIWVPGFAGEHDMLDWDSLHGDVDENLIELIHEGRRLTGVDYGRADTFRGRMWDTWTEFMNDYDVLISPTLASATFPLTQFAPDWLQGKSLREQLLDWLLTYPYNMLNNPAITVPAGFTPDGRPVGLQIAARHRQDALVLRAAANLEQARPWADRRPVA
T1 sequence (A0A3S5Y3Z2 1-487): as the sequence (A0A3S5Y3Z2 entry or part of it) above

Structure (SMILES) | Relative activity (%) ([1]; compound 1 mM, none = 100) | Relative activity (%) ([1]; compound 10 mM, none = 100) | Relative activity (%) [2, 6] | Relative activity (%) [3, 8] | Relative activity (%) [3, 9] | Relative activity (%) [2, 7] | further results
O[C@H](CS)[C@H](O)CS (racemic) [Dithiothreitol] | 112% | 77% | 103% | 35% | 5.4% | – | activity at 10000 µM [2, 7]: 100%
CC(=O)NC(C)c1cccc(C#N)c1 (racemic) [Substrate 2a] | – | – | – | – | – | – | Selectivity E [4]: > 500; e.e. (S)-Amine [4]: > 99.9; e.e. (R)-Amide [4]: 85.5; Selectivity E [5]: 60; e.e. (R)-Amine [5]: 91.5; e.e. (S)-Amide [5]: 82.4
CC(=O)NC(C)c1ccc(C#N)cc1 (racemic) [Substrate 3a] | – | – | – | – | – | – | Selectivity E [4]: > 500; e.e. (S)-Amine [4]: > 99.9; e.e. (R)-Amide [4]: 97.4; Selectivity E [5]: 320; e.e. (R)-Amine [5]: 95.0; e.e. (S)-Amide [5]: > 99.9
CC(=O)NC1CCc2ccccc21 (racemic) [Substrate 5a] | – | – | – | – | – | – | Selectivity E [4]: 65; e.e. (S)-Amine [4]: 88.2; e.e. (R)-Amide [4]: 96.7; Selectivity E [5]: 180; e.e. (R)-Amine [5]: 95.7; e.e. (S)-Amide [5]: 96.1
CC(=O)NC(C)c1ccc2ccccc2c1 (racemic) [Substrate 7a] | – | – | – | – | – | – | Selectivity E [4]: 88; e.e. (S)-Amine [4]: 97.4; e.e. (R)-Amide [4]: 16.4
CC(=O)NC(C)c1ccc2c(c1)OCO2 (racemic) [Substrate 8a] | – | – | – | – | – | – | Selectivity E [4]: 280; e.e. (S)-Amine [4]: 97.8; e.e. (R)-Amide [4]: 90.1; Selectivity E [5]: 60; e.e. (R)-Amine [5]: 91.5; e.e. (S)-Amide [5]: 82.4
CC(=O)NC(C)CCc1ccccc1 (racemic) [Substrate 9a] | – | – | – | – | – | – | Selectivity E [4]: 230; e.e. (S)-Amine [4]: 92.1; e.e. (R)-Amide [4]: > 99.9
[Ba+2].[Cl-].[Cl-] [BaCl2] | – | – | 95% | 92% | 89% | 99% | –
[Ca+2].[Cl-].[Cl-] [CaCl2] | 89% | 85% | 90% | 92% | 88% | 83% | –
[Cl][Cd][Cl] [CdCl2] | – | – | 85% | 5% | 0% | 38% | Relative activity (%), EDTA reactivation [3]: 79%
O=C(O)CC(O)(CC(=O)O)C(=O)O [Citrate] | 113% | 133% | 106% | 122% | 100% | – | activity at 10000 µM [2, 7]: 91%
[Cl-].[Cl-].[Co+2] [CoCl2] | 97% | 86% | 69% | 26% | 15% | 83% | Relative activity (%), EDTA reactivation [3]: 91%
[Cl][Cu][Cl] [CuCl2] | 66% | 50% | 88% | 50% | 0% | 41% | Relative activity (%), EDTA reactivation [3]: 86%
N[C@@H]1CONC1=O [D-cycloserine] | 104% | 96% | – | – | – | – | –
O=C(O)CN(CCN(CC(=O)O)CC(=O)O)CC(=O)O [EDTA] | – | – | – | – | – | – | Relative activity (%) [1]: 99 and 89; Relative activity (%) ([2]; pH 8): 102; activity at 10000 µM [2]: 104%; Relative activity (%) [3]: 121; Relative activity (%) ([3]; pH 8): 119
[Cl][Fe]([Cl])[Cl] [FeCl3] | 101% | 37% | 101% | 121% | 132% | 92% | –
N[C@@H](CCC(=O)N[C@@H](CS)C(=O)NCC(=O)O)C(=O)O [Glutathion, reduced] | – | – | – | – | – | – | Relative activity (%) [1]: 104 and 93; Relative activity (%) ([2]; pH 8): 106; activity at 10000 µM [2]: 102%; Relative activity (%) [3]: 112; Relative activity (%) ([3]; pH 8): 113
NC(=O)CI [Iodoacetamide] | 104% | 67% | 87% | 96% | 29% | – | activity at 10000 µM [2, 7]: 32%
OCCS [Mercaptoethanol] | 106% | 101% | 104% | 115% | 69% | – | activity at 10000 µM [2, 7]: 108%
[Cl-].[Cl-].[Mg+2] [MgCl2] | 101% | 87% | 90% | 103% | 93% | 99% | –
[Cl][Mn][Cl] [MnCl2] | 94% | 83% | 87% | 99% | 60% | 87% | –
[Cl][Ni][Cl] [NiCl2] | 87% | 80% | 40% | 14% | 0% | 10% | Relative activity (%), EDTA reactivation [3]: 85%
[Cl][Pb][Cl] [PbCl2] | – | – | 95% | 79% | 9% | 99% | Relative activity (%), EDTA reactivation [3]: 102%
O=S(=O)(F)Cc1ccccc1 [Phenylmethyl-sulfonyl fluoride] | – | – | 0% | 44% | – | 0% | Relative activity (%) ([1]; compound 0.01 mM): 0%; Relative activity (%) ([1]; compound 0.1 mM): 0%; Relative activity (%) ([2]; compound 0.01 mM): 17%; Relative activity (%) ([2]; compound 0.1 mM): 4.8%
[Cl][V]([Cl])[Cl] [VCl3] | – | – | 89% | 96% | 106% | 94% | –
[Cl-].[Cl-].[Zn+2] [ZnCl2] | 66% | 0% | 68% | < 1.5% | 0% | 47% | Relative activity (%), EDTA reactivation [3]: 75%
O=C(O)c1cc[c]([Hg+])cc1.[OH-] [p-hydroxy-mercuribenzoate] | 89% | 96% | – | – | – | – | –
